US9249129B2, “Morpholino substituted urea derivatives as mTOR inhibitors” (CELLZOME LIMITED, priority 2010, dated 2016)

Columns and labels:
Assay in all cases: kinobeads assay with mass spectrometry detection of kinases (kinase selectivity profile)
Type in all cases: binding
kinases (kinome) [1] = target: T1, kinases (kinome) (Homo sapiens, UniProt P45984); conditions: JNK2 (CMGC), IPI00303550
T1 construct: determined in kinobeads assays with mass spectrometry detection of kinases as described previously; endogenous in cells; host or cells: cell lysate
T1 sequence (P45984 whole entry): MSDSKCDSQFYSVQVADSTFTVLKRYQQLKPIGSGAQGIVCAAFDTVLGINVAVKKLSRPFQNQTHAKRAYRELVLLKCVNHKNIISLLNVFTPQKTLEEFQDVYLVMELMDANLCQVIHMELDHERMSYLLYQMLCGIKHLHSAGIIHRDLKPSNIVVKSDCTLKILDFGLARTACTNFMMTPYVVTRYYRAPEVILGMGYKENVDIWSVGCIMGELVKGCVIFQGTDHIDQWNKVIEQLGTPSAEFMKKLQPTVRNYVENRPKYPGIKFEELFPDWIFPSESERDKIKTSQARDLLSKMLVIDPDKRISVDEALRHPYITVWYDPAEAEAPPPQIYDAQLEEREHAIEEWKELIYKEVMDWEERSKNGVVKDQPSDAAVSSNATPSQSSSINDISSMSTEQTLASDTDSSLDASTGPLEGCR
Excerpt: (§1) The protein kinase complement of the human genome (the kinome) was described previously (Manning et al., 2002. Science 298(5600):1912-1934). Sequence accession numbers are defined by the International Protein Index (IPI) (Kersey et al., 2004. Proteomics 4(7):1985-1988).

kinases (kinome) [2] = target: T2, kinases (kinome) (Homo sapiens, UniProt Q13554); conditions: CaMK2b (CAMK), IPI00221305
T2 construct: determined in kinobeads assays with mass spectrometry detection of kinases as described previously; endogenous in cells; host or cells: cell lysate
T2 sequence (Q13554 whole entry): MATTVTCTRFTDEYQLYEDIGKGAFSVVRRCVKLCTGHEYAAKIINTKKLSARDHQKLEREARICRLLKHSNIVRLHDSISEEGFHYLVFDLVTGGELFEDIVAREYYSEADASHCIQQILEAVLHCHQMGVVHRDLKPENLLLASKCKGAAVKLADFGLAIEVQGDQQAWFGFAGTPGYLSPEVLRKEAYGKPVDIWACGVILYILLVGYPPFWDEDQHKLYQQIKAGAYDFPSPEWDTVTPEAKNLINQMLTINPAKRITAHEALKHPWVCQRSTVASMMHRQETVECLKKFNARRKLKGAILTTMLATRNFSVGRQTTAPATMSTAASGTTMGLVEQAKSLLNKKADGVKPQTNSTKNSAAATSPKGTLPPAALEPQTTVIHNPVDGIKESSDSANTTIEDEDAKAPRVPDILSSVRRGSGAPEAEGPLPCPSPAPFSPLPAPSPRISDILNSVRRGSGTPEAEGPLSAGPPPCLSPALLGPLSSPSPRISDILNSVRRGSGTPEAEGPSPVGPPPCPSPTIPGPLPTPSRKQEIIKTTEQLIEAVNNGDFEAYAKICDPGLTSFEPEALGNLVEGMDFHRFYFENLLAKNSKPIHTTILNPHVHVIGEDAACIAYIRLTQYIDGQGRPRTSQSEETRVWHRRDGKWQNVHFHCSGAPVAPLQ
Excerpt: as §1

kinases (kinome) [3] = target: T3, kinases (kinome) (Homo sapiens, UniProt Q08881); conditions: ITK (TK), IPI00004566
T3 construct: determined in kinobeads assays with mass spectrometry detection of kinases as described previously; endogenous in cells; host or cells: cell lysate
T3 sequence (Q08881 1-620): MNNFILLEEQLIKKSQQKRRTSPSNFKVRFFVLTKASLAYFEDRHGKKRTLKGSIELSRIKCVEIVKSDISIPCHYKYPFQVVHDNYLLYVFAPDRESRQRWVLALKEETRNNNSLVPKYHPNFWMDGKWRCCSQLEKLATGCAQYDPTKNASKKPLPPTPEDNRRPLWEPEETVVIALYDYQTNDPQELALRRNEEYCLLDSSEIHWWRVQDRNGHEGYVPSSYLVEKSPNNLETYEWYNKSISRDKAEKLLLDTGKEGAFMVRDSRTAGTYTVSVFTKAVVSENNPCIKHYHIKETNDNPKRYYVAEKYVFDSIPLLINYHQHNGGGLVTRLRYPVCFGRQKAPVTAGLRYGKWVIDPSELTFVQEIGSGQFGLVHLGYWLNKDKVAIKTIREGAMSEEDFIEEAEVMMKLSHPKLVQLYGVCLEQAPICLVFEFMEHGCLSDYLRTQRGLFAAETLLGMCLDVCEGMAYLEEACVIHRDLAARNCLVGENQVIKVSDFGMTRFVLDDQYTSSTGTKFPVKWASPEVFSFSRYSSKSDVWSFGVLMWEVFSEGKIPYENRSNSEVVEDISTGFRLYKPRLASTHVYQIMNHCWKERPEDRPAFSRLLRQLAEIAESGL
Excerpt: as §1

kinases (kinome) [4] = target: T4, kinases (kinome) (Homo sapiens, UniProt O00444); conditions: PLK4 (Other), IPI00410344
T4 construct: determined in kinobeads assays with mass spectrometry detection of kinases as described previously; endogenous in cells; host or cells: cell lysate
T4 sequence (O00444 1-970): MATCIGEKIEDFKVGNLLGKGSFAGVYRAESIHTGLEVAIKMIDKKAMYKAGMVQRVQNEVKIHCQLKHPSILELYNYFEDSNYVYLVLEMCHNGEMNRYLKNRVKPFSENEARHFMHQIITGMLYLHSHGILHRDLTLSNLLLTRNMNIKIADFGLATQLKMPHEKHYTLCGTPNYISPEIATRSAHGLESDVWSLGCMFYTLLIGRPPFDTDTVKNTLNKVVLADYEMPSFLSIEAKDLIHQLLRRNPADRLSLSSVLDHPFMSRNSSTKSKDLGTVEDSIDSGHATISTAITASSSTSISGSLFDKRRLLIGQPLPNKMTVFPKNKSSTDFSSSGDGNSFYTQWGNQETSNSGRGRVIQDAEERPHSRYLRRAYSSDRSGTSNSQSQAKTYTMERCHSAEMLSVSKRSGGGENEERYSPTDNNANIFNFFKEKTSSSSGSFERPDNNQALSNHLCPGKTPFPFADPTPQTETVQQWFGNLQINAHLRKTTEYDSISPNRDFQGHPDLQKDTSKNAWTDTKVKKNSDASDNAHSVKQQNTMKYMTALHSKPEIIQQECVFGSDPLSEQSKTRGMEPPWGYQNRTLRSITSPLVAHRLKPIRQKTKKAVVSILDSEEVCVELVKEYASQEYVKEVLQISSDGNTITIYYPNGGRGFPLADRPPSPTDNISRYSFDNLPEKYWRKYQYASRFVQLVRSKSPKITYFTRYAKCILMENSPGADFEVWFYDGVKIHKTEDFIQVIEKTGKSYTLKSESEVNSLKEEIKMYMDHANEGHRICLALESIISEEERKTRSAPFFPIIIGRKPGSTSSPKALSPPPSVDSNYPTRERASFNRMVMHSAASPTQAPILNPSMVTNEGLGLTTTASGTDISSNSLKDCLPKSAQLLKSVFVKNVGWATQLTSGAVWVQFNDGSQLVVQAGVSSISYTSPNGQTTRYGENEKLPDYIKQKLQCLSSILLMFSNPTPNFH
Excerpt: as §1

kinases (kinome) [5] = target: T5, kinases (kinome) (Homo sapiens, UniProt Q14289); conditions: PYK2 (TK), IPI00029702
T5 construct: determined in kinobeads assays with mass spectrometry detection of kinases as described previously; endogenous in cells; host or cells: cell lysate
T5 sequence (Q14289 whole entry): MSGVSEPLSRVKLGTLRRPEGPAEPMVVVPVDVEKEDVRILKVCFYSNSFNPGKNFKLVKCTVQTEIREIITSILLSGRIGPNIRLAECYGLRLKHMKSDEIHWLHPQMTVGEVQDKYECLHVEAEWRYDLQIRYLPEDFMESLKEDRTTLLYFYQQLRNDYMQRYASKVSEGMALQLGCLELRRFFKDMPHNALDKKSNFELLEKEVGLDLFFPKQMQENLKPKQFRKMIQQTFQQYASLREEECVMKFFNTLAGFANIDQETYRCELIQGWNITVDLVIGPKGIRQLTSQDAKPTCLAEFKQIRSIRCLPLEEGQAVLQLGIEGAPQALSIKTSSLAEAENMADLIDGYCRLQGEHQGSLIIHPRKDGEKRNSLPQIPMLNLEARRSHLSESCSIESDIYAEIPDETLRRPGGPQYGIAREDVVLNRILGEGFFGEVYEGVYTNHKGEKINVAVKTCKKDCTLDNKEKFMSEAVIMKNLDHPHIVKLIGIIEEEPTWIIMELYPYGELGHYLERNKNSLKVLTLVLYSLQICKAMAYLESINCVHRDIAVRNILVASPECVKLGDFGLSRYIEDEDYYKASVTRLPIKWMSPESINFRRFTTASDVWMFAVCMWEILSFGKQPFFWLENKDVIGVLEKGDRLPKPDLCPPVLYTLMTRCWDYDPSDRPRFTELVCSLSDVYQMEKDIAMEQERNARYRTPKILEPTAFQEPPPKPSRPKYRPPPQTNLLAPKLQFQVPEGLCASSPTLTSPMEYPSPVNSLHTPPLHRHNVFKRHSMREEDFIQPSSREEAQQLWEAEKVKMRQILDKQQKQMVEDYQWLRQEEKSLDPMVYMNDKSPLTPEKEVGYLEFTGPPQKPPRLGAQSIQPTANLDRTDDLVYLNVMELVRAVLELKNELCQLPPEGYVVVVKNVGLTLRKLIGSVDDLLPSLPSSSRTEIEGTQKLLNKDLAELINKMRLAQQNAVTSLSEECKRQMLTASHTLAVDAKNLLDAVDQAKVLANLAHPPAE
Excerpt: as §1

kinases (kinome) [6] = target: T6, kinases (kinome) (Homo sapiens, UniProt P51955); conditions: NEK2 (Other), IPI00021331
T6 construct: determined in kinobeads assays with mass spectrometry detection of kinases as described previously; endogenous in cells; host or cells: cell lysate
T6 sequence (P51955 1-445): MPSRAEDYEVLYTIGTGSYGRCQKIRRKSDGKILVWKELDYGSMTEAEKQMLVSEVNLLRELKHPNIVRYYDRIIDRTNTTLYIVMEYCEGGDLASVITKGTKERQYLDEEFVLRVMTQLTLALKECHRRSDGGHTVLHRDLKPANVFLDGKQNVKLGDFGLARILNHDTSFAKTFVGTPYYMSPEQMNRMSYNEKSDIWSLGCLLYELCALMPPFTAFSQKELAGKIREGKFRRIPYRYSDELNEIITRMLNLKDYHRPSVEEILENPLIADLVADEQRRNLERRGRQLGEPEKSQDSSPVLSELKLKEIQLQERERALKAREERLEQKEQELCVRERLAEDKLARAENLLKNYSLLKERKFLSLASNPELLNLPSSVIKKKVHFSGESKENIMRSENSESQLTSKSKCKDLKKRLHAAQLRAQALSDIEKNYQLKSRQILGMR
Excerpt: as §1

kinases (kinome) [7] = target: T7, kinases (kinome) (Homo sapiens, UniProt Q96S53); conditions: TESK2 (TKL), IPI00102677
T7 construct: determined in kinobeads assays with mass spectrometry detection of kinases as described previously; endogenous in cells; host or cells: cell lysate
T7 sequence (Q96S53 whole entry): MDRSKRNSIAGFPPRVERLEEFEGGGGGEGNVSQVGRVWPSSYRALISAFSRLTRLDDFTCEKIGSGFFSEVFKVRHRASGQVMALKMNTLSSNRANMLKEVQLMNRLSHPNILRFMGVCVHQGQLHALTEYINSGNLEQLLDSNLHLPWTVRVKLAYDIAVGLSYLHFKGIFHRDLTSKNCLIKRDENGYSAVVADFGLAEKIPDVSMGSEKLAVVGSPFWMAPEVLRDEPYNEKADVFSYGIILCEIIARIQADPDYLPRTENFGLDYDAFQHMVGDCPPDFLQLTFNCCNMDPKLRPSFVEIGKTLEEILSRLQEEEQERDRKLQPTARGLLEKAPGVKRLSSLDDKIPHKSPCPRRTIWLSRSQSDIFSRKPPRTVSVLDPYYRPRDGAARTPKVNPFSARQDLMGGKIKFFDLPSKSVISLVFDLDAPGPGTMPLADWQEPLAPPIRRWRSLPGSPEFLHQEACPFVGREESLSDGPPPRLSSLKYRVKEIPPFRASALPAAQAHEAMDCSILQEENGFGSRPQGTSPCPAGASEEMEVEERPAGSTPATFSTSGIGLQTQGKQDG
Excerpt: as §1

kinases (kinome) [8] = target: T8, kinases (kinome) (Homo sapiens, UniProt Q9BVS4); conditions: RIOK2 (Atypical), IPI00306406
T8 construct: determined in kinobeads assays with mass spectrometry detection of kinases as described previously; endogenous in cells; host or cells: cell lysate
T8 sequence (Q9BVS4 whole entry): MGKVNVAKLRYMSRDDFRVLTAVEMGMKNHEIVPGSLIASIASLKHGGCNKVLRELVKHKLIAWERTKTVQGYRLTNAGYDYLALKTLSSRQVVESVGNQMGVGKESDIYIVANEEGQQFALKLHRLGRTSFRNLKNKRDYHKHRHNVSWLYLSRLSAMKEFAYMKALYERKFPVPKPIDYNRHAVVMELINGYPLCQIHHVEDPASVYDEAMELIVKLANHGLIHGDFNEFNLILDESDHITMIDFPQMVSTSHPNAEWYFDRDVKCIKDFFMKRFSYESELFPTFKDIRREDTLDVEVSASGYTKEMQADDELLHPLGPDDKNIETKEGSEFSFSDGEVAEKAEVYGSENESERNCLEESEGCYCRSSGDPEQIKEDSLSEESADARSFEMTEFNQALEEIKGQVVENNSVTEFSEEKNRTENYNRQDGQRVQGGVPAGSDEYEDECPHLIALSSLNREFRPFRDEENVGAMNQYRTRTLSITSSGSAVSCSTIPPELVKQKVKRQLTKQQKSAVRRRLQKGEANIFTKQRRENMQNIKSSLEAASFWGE
Excerpt: as §1

kinases (kinome) [9] = target: T9, kinases (kinome) (Homo sapiens, UniProt P78527); conditions: DNAPK (Atypical), IPI00296337
T9 construct: determined in kinobeads assays with mass spectrometry detection of kinases as described previously; endogenous in cells; host or cells: cell lysate
Excerpt: as §1

kinases (kinome) [10] = target: T10, kinases (kinome) (Homo sapiens, UniProt P06241); conditions: FYN (TK), IPI00219012
T10 construct: determined in kinobeads assays with mass spectrometry detection of kinases as described previously; endogenous in cells; host or cells: cell lysate
T10 sequence (P06241 whole entry): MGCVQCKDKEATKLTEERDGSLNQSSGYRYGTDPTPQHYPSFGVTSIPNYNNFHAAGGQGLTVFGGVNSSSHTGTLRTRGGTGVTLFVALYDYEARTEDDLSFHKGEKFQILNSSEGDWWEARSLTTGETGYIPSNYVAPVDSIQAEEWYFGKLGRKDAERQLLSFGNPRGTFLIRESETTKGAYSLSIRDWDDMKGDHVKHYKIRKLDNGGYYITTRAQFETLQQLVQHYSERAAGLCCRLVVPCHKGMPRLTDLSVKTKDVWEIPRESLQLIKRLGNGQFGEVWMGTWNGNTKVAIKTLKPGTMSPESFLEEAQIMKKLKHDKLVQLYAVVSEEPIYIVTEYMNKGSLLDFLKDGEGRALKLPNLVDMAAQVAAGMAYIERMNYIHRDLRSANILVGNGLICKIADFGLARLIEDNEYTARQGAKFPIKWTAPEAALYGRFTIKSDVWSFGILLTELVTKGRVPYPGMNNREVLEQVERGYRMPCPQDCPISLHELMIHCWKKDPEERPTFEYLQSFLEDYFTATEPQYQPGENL
Excerpt: as §1

kinases (kinome) [11] = target: T11, kinases (kinome) (Homo sapiens, UniProt Q15569); conditions: TESK1 (TKL), IPI00018182
T11 construct: determined in kinobeads assays with mass spectrometry detection of kinases as described previously; endogenous in cells; host or cells: cell lysate
T11 sequence (Q15569 whole entry): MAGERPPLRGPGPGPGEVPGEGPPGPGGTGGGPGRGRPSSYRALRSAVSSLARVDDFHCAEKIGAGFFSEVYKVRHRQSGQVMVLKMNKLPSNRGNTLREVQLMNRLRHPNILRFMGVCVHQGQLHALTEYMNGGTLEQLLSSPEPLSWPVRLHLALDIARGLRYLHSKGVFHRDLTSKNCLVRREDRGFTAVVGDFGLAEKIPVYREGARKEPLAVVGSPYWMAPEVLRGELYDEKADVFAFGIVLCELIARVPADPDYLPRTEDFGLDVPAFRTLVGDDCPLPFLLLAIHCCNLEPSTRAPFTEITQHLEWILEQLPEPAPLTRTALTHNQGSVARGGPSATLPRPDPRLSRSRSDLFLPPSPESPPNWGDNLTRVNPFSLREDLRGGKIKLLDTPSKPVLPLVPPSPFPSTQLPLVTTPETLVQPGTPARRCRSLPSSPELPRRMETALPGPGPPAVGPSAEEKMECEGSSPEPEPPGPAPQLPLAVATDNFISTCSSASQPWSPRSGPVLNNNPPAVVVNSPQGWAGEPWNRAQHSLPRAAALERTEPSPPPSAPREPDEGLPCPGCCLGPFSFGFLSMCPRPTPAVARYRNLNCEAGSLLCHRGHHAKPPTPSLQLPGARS
Excerpt: as §1

Measured: IC50

C[C@H]1COCCN1c1nc(-c2ccc(NC(=O)N[C@H]3CCC[C@@H]3O)cc2)cc(-c2cc(F)ccc2S(C)(=O)=O)n1 [Example 76, 1-(4-(6-(5-fluoro-2-(methylsulfonyl)phenyl)-2-((S)-3-methylmorpholino)pyrimidin-4-yl)phenyl)-3-((1S,2S)-2-hydroxycyclopentyl)urea]
not listed: kinases (kinome) [11]
> 10 µM: all other assays above

C[C@H]1COCCN1c1nc(-c2ccc(NC(=O)NC3CC3)cc2)cc(-c2ccccc2S(C)(=O)=O)n1 [Example 4, (S)-1-cyclopropyl-3-(4-(2-(3-methylmorpholino)-6-(2-(methylsulfonyl)phenyl)pyrimidin-4-yl)phenyl)urea]
not listed: kinases (kinome) [2]
> 10 µM: all other assays above

C[C@H]1COCCN1c1cc(-c2ccccc2S(C)(=O)=O)nc(-c2ccc(NC(=O)NC3CC3)cc2)n1 [Example 6, (S)-1-cyclopropyl-3-(4-(4-(3-methylmorpholino)-6-(2-(methylsulfonyl)phenyl)pyrimidin-2-yl)phenyl)urea]
> 10 µM: all assays above

C[C@H]1COCCN1c1cc(-c2ccccn2)nc(-c2ccc(NC(=O)NCCO)cc2)n1 [Example 43, (S)-1-(2-hydroxyethyl)-3-(4-(4-(3-methylmorpholino)-6-(pyridin-2-yl)pyrimidin-2-yl)phenyl)urea]
> 10 µM: all assays above

C[C@H]1COCCN1c1nc(-c2ccc(NC(=O)NC3CC3)cc2)cc(-c2cccnc2S(C)(=O)=O)n1 [Example 46, (S)-1-cyclopropyl-3-(4-(2-(3-methylmorpholino)-6-(2-(methylsulfonyl)pyridin-3-yl)pyrimidin-4-yl)phenyl)urea]
> 10 µM: all assays above

CCNC(=O)Nc1ccc(-c2cc(-c3ccccc3C#N)nc(N3CCOC[C@@H]3C)n2)cc1 [Example 8, (S)-1-(4-(6-(2-cyanophenyl)-2-(3-methylmorpholino)pyrimidin-4-yl)phenyl)-3-ethylurea]
> 10 µM: all assays above

C[C@H]1COCCN1c1nc(-c2ccc(NC(=O)NC3CC3)cc2)cc(-c2cc(F)ccc2S(C)(=O)=O)n1 [Example 40, (S)-1-cyclopropyl-3-(4-(6-(5-fluoro-2-(methylsulfonyl)phenyl)-2-(3-methylmorpholino)pyrimidin-4-yl)phenyl)urea]
> 10 µM: all assays above
